{"source": "patent EP3454861B1", "about": "“BENZOXAZINE OR QUINAZOLINE DERIVATIVES FOR USE IN THE TREATMENT OF ALZHEIMER'S DISEASE” (Biocodex, priority 2016, dated 2017)", "test_system": "peroxydation lipidique", "assay": "Lipid peroxidation measurement in mouse hippocampus (colorimetric, CHP equivalents)", "format": "in vivo, souris", "details": "Etifoxine 12,5-50 mg/kg per day IP, Aβ25-35 ICV, day 10", "source_text": "Le 1^er jour : une version « mélangée » (scrambled) du peptide amyloïde β25-35 (Sc.Aβ, témoin négatif) ou le peptide amyloïde β25-35 (Aβ25-35) est injecté par voie intra-cérébroventriculaire (ICV) (le peptide Aβ25-35 provoque l'intoxication cellulaire). Entre le 1^er jour et le 10^ème jour, les traitements sont administrés une fois par jour par voie intrapéritonéale (IP).\nA la fin de la session de rétention d'évitement passif, le 10^ème jour, les animaux sont sacrifiés par décapitation. L'hippocampe et le cortex frontal sont disséqués et congelés dans l'azote liquide. L'hippocampe est utilisé pour mesurer le taux de peroxydation lipidique à l'aide d'une méthode colorimétrique et pour évaluer les taux de 4 marqueurs biochimiques par des tests ELISA. Le cortex est conservé à -80°C en attente d'analyses supplémentaires. Les plasmas sont également conservés en attente d'analyses supplémentaires. Les échantillons biologiques sont jetés après 3 mois.\nLes souris de chaque groupe sont sacrifiées par décapitation et les deux hippocampes sont prélevés, pesés et conservés dans de l'azote liquide jusqu'à l'analyse. […] Après avoir lu l'absorbance à 580 nm (A5801), 10 µl d'hyperoxyde de cumène (CHP) (1 mM) sont ajoutés à l'échantillon et il est incubé pendant 30 minutes à température ambiante pour déterminer le degré d'oxydation maximal. L'absorbance est mesurée à 580 nm (A5802). […]", "data": [{"smiles": "CCNC1=Nc2ccc(Cl)cc2C(C)(c2ccccc2)O1", "note": "(stereo not shown) [Etifoxine, chlorhydratede 6-chloro-2-éthylamino-4-méthyl-4-phényl-4H-[3,1]benzoxazine]", "values": [{"measurement": "peroxydation lipidique dans l'hippocampe (stress oxydatif induit par Aβ25-35)", "value": "diminuer de manière dose-sensible le stress oxydatif"}]}]}
